Measured values as given in article PMC9166630, “SAR Probing of KX2-391 Provided Analogues With Juxtaposed Activity Profile Against Major Oncogenic Kinases” (Frontiers in Oncology, 2022).
Several values for one entry are separate records, joined by “and”; a condition that tells them apart may be missing. Equal values may be shown once.

Tests used:
K562 leukemia cell line = test: CellTiter-Blue cell viability assay, K562; type: cell-based; details: Homo sapiens, CellTiter-Blue, 48 h, maximum tested concentration 20 µM, read-out: IC50 ± SEM, K562
Procedure: (§1) HL60, K562, MV4-11 and NB4 were purchased from CLS Cell Line Service GmbH (Eppelheim, Germany). All cell lines were cultured in RPMI-1640 medium supplemented with 10% fetal bovine serum (FBS) (Thermo Fisher Scientific) and 0.1% ciprofloxacin (2.5mg/ml; Cipla Limited; Mumbai, India), and were maintained at 37°C in the presence of 21% O2 and 5% CO2.
(§2) Cell viability was determined using the CellTiter®-Blue Cell Viability Assay kit (Promega, Madison, WI, USA). Approximately 10^4 cells were counted and plated in a 96-well plate in the presence of test compounds ranging from 0.01 to 10 or 20 µM in triplicate and were incubated for 48 h at 37°C in a humidified incubator. After the incubation period was complete, 20 µL of CellTiter®-Blue Cell Viability Assay reagent was added to each well and incubated for additional 2 h for the development of florescence. Florescence was measured at Ex/Em 540/590 on SpectraMax® i3 Multi-Mode microplate reader (Molecular Devices, LLC; San Jose, CA, USA) and plotted against drug concentration to determine the IC50 of the test compounds. The IC50 was obtained by non-linear regression model using GraphPad Prism 6.07 (GraphPad Software, Inc, USA).

HL60 leukemia cell line = test: CellTiter-Blue cell viability assay, HL60; type: cell-based; details: Homo sapiens, HL-60; CellTiter-Blue, 48 h; maximum tested concentration 20 µM; read-out: IC50 ± SEM, HL60
Procedure: as §1, §2

[1] = system: human skin fibroblasts (HSF); test: Normal cell line assay; type: cell-based; details: Skin fibroblast
Procedure: In addition to having a good physicochemical profile, it is important for a studied lead to differentiate between cancer cells and highly proliferating non-cancerous cells. Therefore, we assessed compounds 4e and 4n for both the in silico and in vitro physicochemical characteristics as well as for cytotoxic effect on human skin fibroblasts (HSF) cell lines.
The effect of the two compounds was evaluated for their effect on the growth and proliferation human skin fibroblasts (HSF) as an example of non-cancerous cell lines.

[2] = Stability in human liver microsomes; type: in vitro ADME; details: for half-life: human liver microsomes with NADPH, 37°C, read-out: Stability HLM t1/2; for Mic. Ctrl. Human % 60 min: human liver microsomes, no NADPH added
Procedure: Both mouse and human liver microsomes were obtained from Merck KGaA, (Darmstadt, Germany), Cat. No. M9441 (Mouse liver microsomes) and M0317 (Human liver microsomes). Assays were conducted in triplicate in 96-deep well polypropylene plates. […] At five time points, reaction mixture aliquots were transferred to 96-shallow well stop plates on ice containing acetonitrile with 0.1 µM propafenone. […] Standard curves for test compound were generated using 5 concentrations in triplicate that were processed as above but with zero incubation time. Stop plates were centrifuged at 2000 g for 10 min and then supernatant aliquots were transferred to a Waters Aquity® UPLC 700 µL 96-well sample plate with cap mat (Waters, Milford, MA). The amount of compound remaining in the supernatant was quantified by LC/MS/MS using a Waters Xevo TQ MS (electrospray positive mode) coupled to a Waters Aquity® UPLC (BEH column, C18). Propafenone was used as the internal standard. GraphPad® Prism v 5.04 was used for nonlinear fitting of time course data to generate t1/2 values.

C-Jun = test: Human phosphokinase array, c-Jun; type: cell-based
Excerpt: The kinome tree representation (Figure 7C), which was generated by raising the Kinase Score cut-off to >1.2, confirmed that, unlike tirbanibulin and our prototype molecule KX1-136, 4e’s effects were more observable on kinases other than the Src family such as the Eph and TEC families. […] Therefore, we screened compound 4e using the Human Phospho-Kinase Array® kit from R&D systems (Minneapolis, MN, USA). In this system, 35 phosphorylated YK and serine-threonine kinase (STK) enzymes in the untreated (control) and treated (test) HL60 cell lysates were captured on nitrocellulose membrane, pre-spotted with phosphokinase-specific capture antibodies, and then visualized by detection antibody cocktails (Figure 8). The difference in the spot intensity between untreated (control) and treated cells is proportional to change in the amount of the phosphorylated protein induced by 4e.
The phosphorylation profile of 48 kinases was performed using the Proteome Profiler Human Phospho-Kinase Antibody Array Kit by R&D Systems (Minneapolis, MN, USA) according to the protocol. Briefly, the total cellular protein was extracted using the Lysis buffer and was quantified using Bio-Rad DC Protein Assay kit (Hercules, CA, USA). Nitrocellulose membrane set (A&B), pre-spotted with kinase-specific capture antibodies, were first blocked with Array Buffer-1 at RT for 30 min on a rocking platform shaker. Approximately 600 µg of protein concentrate was diluted in the buffer provided and was added onto the membrane set, and the membranes were incubated overnight at 4°C in an 8-well plate. Subsequently, membranes were washed with Wash Buffer and incubated with appropriate Detection Antibody cocktails for 2 h at RT. Streptavadin-HRP (1:2000) was added onto membranes and incubated for 30 min at RT. Membranes were washed, and Chemiluminescent Detection Reagents 1&2 were applied in equal volumes for detection. The signals were detected on C-DiGit®Blot Scanner (LI-COR, Odyssey Imaging Systems, Lincoln, Nebraska, USA) using Image Studio 5.0 software.

| Compound | IC50 (K562 leukemia cell line) [nM] | IC50 (HL60 leukemia cell line) [nM] | IC50 [1] [nM] | half-life [2] [min] | Mic. Ctrl. Human % 60 min [2] [%] | phosphokinase signal after 4e exposure, C-Jun (C-Jun; HL60 cell lysate, treated) | Change in Signal, C-Jun (C-Jun; treated vs untreated HL60) | % Change, C-Jun (C-Jun; treated vs untreated HL60, Ser63 phosphorylation increase) |
| --- | --- | --- | --- | --- | --- | --- | --- | --- |
| O=C(Cc1ccc(NC(=O)c2cccc(Cl)n2)cc1)NCc1ccccc1 [Compound 4n, N-(4-(2-(benzylamino)-2-oxoethyl)phenyl)-6-chloropicolinamide] | 2690 ± 650 | 2220 ± 60 | 270 ± 30 | 40.1 | 98 |  |  |  |
| O=C(Cc1ccc(NC(=O)c2cccc(Cl)c2)cc1)NCc1ccccc1 [Compound 4e, N-(4-(2-(benzylamino)-2-oxoethyl)phenyl)-3-chlorobenzamide] | 4230 ± 200 | 1620 ± 130 | > 20000 | > 60 | 102 | 1811.31 | 829.81 | 84% and 84.55% |
